Source: ChEMBL document CHEMBL1127360, “Antipodal alpha-N-(methyl through decyl)-N-normetazocines (5,9 alpha-dimethyl-2'-hydroxy-6,7-benzomorphans): in vitro and in vivo properties” (J Med Chem, 1994)
Active and inactive are the calls of the source. The rule behind the calls is not given here.

Legend:
[1] = biological target: Sigma non-opioid intracellular receptor 1 (Homo sapiens, UniProt Q99720); assay: Binding affinity against sigma receptor was determined
Mus musculus [2] = assay: In vivo antinociceptive activity was tested through hot plate (HP) and counting jumps or paw licks; assay type: functional, organism-based
Mus musculus [3] = assay: In vivo antinociceptive activity through injecting 2 mg/kg ip phenylquinone, activity calculated by total number of abdominal-stretches per group counted over a 1 min period; Inactive; assay type: functional, organism-based; parameters: dose 2 mg/kg
Mus musculus [4] = assay: (§1) In vivo antinociceptive activity was tested through tail flick (TF) with this compound in mouse; assay type: functional, organism-based
Mus musculus [5] = assay: In vivo for its narcotic antagonistic activity of the antinociceptive effect in mouse; assay type: functional, organism-based
Mu-type opioid receptor = Mu-type opioid receptor (Rattus norvegicus, UniProt P33535); assay: Inhibition against mu receptor using [3H]DAMGO in homogenate of rat brain cerebellum; assay type: tissue-based
Glutamate NMDA receptor = assay: Inhibition using [3H]TCP in homogenate of rat brain; assay type: tissue-based
[6] = biological target: Mu-type opioid receptor (Rattus norvegicus) (UniProt P33535); assay: Ratio of potencies of (+) and (-) enantiomers against Mu receptors in Rats
[7] = biological target: Mu-type opioid receptor (Homo sapiens) (UniProt P35372); assay: Ratio of potencies of (+) and (-) enantiomers against Mu receptors in monkeys; conditions: Cercopithecidae; target entry is the homologue from another species
[8] = biological target: T1, Glutamate NMDA receptor (Rattus norvegicus) (UniProt P35439+Q00959+Q00960+Q00961+Q62645+Q8VHN2+Q9R1M7); assay: Ratio of potencies of (+) and (-) enantiomers against PCP in rats
[9] = biological target: Kappa-type opioid receptor (Homo sapiens) (UniProt P41145); assay: Ratio of potencies of (+) and (-) enantiomers against kappa receptors in monkeys; conditions: Cercopithecidae; target entry is the homologue from another species
Cercopithecidae = assay: Ratio of potencies against Mu receptor of monkey to that of rat
[10] = biological target: Mu-type opioid receptor (Homo sapiens) (UniProt P35372); assay: Ratio of potencies against Mu receptor to that of kappa receptor of monkey; conditions: Cercopithecidae; target entry is the homologue from another species
[11] = biological target: T1, Glutamate NMDA receptor (Rattus norvegicus); assay: Ratio of potencies against PCP receptor to that of Mu receptor of rat; assay type: protein-complex assay
Cavia porcellus [12] = organism: Cavia porcellus; assay: Ratio of potencies against PCP receptor to that of sigma receptor
Cavia porcellus [13] = organism: Cavia porcellus; assay: Ratio of potencies against sigma receptor to that of Mu receptor of rat
Mus musculus [14] = assay: In vivo antinociceptive activity was tested through injecting 2 mg/kg ip phenylquinone, activity calculated by total number of abdominal-stretches; assay type: functional, Abdomen; conditions: route intraperitoneal
Mus musculus [15] = assay: as §1; assay type: functional; parameters: unit not given beside the values
Mus musculus [16] = assay: In vivo antinociceptive activity at 30 mg/kg was tested through hot plate (HP) by placing mouse on hot plate, and calculating number of times it jumps or licks its paw in 5 seconds; assay type: functional
Mus musculus [17] = assay: In vivo antinociceptive activity at 30 mg/kg was tested through injecting 2 mg/kg ip phenylquinone, activity calculated by total number of abdominal-stretches per group counted over a 1 min period; assay type: functional
Mus musculus [18] = assay: In vivo antinociceptive activity was tested through tail flick (TF) with this compound in mouse at 30 mg/kg concentration; assay type: functional
Mus musculus [19] = assay: Compound was tested in vivo for its narcotic antagonistic activity of the antinociceptive effect in mouse; assay type: functional
Mus musculus [20] = assay: In vivo antinociceptive activity at 1 mg/kg was tested through hot plate (HP) by placing mouse on hot plate, and calculating number of times it jumps or licks its paw in 5 seconds; assay type: functional
Mus musculus [21] = assay: In vivo antinociceptive activity at 10 mg/kg was tested through hot plate (HP) by placing mouse on hot plate, and calculating number of times it jumps or licks its paw in 5 seconds; assay type: functional
Mus musculus [22] = assay: In vivo antinociceptive activity through hot plate (HP) by placing mouse on hot plate, and calculating number of times it jumps or licks its paw in 5 seconds; assay type: functional
Mus musculus [23] = assay: Compound was tested in vivo for its narcotic antagonistic activity of the antinociceptive effect in mouse at 30 mg/kg; assay type: functional
Mus musculus [24] = assay: In vivo antinociceptive activity at 20 mg/kg was tested through injecting 2 mg/kg ip phenylquinone, activity calculated by total number of abdominal-stretches per group counted over a 1 min period; assay type: functional

Mu-type opioid receptor (Homo sapiens), sequence (P35372 whole entry): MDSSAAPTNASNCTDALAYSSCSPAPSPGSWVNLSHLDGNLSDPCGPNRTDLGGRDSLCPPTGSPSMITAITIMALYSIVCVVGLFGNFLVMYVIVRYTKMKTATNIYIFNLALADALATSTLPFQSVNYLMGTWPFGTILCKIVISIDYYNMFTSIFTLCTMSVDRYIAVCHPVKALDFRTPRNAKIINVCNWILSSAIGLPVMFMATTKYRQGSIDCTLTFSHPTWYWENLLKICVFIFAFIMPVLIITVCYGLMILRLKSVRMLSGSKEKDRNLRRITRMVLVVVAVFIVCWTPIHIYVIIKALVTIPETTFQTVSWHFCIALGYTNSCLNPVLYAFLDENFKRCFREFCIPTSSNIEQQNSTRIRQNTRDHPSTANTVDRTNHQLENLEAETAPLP
Kappa-type opioid receptor (Homo sapiens), sequence (P41145 whole entry): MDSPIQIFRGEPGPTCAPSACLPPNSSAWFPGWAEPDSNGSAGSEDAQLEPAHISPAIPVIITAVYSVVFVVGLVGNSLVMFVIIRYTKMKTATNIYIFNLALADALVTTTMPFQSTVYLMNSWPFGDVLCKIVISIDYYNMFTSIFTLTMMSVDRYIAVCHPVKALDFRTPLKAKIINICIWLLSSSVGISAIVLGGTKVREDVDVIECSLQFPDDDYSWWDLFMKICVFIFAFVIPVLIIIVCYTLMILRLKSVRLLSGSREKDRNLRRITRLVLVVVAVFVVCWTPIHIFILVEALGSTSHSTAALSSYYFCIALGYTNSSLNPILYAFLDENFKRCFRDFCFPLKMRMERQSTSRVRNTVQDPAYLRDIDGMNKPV
Mu-type opioid receptor (Rattus norvegicus), sequence (P33535 whole entry): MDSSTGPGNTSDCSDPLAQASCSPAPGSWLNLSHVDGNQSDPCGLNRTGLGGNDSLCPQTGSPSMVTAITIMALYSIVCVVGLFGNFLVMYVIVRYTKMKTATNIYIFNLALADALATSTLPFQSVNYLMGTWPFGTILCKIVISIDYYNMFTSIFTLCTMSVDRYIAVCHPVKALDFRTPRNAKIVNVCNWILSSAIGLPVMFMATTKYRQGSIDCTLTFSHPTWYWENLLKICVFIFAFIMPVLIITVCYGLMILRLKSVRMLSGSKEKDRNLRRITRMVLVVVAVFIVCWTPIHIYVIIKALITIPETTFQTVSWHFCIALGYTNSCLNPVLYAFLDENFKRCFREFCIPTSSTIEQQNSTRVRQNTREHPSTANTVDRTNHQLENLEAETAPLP
Mu-type opioid receptor, sequence (P33535 whole entry): as above
Sigma non-opioid intracellular receptor 1, sequence (Q99720 whole entry): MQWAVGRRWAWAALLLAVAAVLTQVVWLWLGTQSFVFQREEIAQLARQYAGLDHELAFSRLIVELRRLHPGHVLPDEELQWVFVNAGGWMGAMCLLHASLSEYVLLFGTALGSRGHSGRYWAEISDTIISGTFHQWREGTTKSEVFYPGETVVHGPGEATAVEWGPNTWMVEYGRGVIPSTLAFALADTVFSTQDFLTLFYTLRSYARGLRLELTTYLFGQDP

Row | SMILES | Activity (Mus musculus [2]) | Activity (Mus musculus [4]) | Activity (Mus musculus [5]) | Ki (Mu-type opioid receptor) | Ki (Glutamate NMDA receptor) | Ratio [6] | Ratio [7] | Ratio [8] | Ratio [9] | Ratio (Cercopithecidae) | Ratio [10] | Ratio [11] | Ratio (Cavia porcellus [12]) | Ratio (Cavia porcellus [13]) | Activity (Mus musculus [14]) | Activity (Mus musculus [15]) | Activity (Mus musculus [22]) | other results
1 | C=CCN1CCC2c3cc(O)ccc3CC1C2C (single isomer, unassigned; (-)) |  |  |  |  |  |  |  |  |  |  |  |  |  |  |  |  |  | Ki [1]: 4.3 µM
2 | CCCCCCCCCCN1CC[C@]2(C)c3cc(O)ccc3CC1[C@@H]2C | inactive | inactive | inactive | 0.507 µM | 10 µM | 9.1 | 0.8 | 0.4 | 1 | 2 | 2.3 | 20 | 263 | 0.08 |  |  |  | Activity (Mus musculus [3]): inactive
3 | CCCCCCCCCN1CC[C@]2(C)c3cc(O)ccc3CC1[C@@H]2C | inactive | inactive | inactive | 0.151 µM | 6.17 µM | 9.1 | 0.7 | 0.7 | 3.2 | 1.2 | 3.9 | 41 | 193 | 0.2 |  |  |  | Activity (Mus musculus [3]): inactive
4 | CCCCCCN1CC[C@@]2(C)c3cc(O)ccc3CC1[C@H]2C | inactive |  | inactive | 0.795 µM | 7.3 µM |  |  |  |  | 0.4 | 7.1 | 9.2 | 3180 | 0.003 | 5.6 | 21.3 |  | 
5 | C[C@H]1C2Cc3ccc(O)cc3[C@@]1(C)CCN2 |  |  | inactive | 0.023 µM | 0.197 µM |  |  |  |  |  |  |  |  |  |  |  |  | inhibition in vivo at 30 mg/kg (Mus musculus [16]): 38%; Inhibition (Mus musculus [17]): 66%; inhibition in vivo at 30 mg/kg (Mus musculus [18]): 13%
6 | C=CCN1CC[C@]2(C)c3cc(O)ccc3CC1[C@@H]2C (single isomer, unassigned; (+)) |  |  |  |  |  |  |  |  |  |  |  |  |  |  |  |  |  | Ki [1]: 0.124 µM
7 | CCN1CC[C@]2(C)c3cc(O)ccc3CC1[C@@H]2C |  | inactive |  | 0.032 µM | 1.87 µM |  |  |  |  |  |  |  |  |  | 1.4 |  |  | Activity (Mus musculus [19]): 3.7; inhibition in vivo at 1 mg/kg (Mus musculus [20]): 13%; inhibition in vivo at 30 mg/kg (Mus musculus [16]): 25%; inhibition in vivo at 10 mg/kg (Mus musculus [21]): 25%
8 | CCCCN1CC[C@@]2(C)c3cc(O)ccc3CC1[C@H]2C | inactive | inactive | inactive | 2.88 µM | 0.893 µM |  |  |  |  | 0.4 | 0.6 | 0.3 | 149 | 0.002 |  |  |  | Inhibition (Mus musculus [17]): 43%
9 | CCCCCCN1CC[C@]2(C)c3cc(O)ccc3CC1[C@@H]2C |  |  | inactive | 0.0047 µM | 3.35 µM | 169 | 8.2 | 2.2 | 53 | 8.3 | 1.1 | 712 | 84 | 8.5 | 0.13 | 1.1 | 2.4 | 
10 | CCCCN1CC[C@]2(C)c3cc(O)ccc3CC1[C@@H]2C | inactive | inactive |  | 0.013 µM | 0.613 µM | 221 | 365 | 1.5 | 160 | 0.3 | 1.4 | 47 | 5.9 | 8 |  |  |  | Activity (Mus musculus [19]): 1.5; Inhibition (Mus musculus [17]): 40%
11 | CCCCCCCCN1CC[C@]2(C)c3cc(O)ccc3CC1[C@@H]2C |  |  | inactive | 0.03 µM | 7.97 µM | 17 | 2.7 | 0.1 | 29 | 2 | 1.3 | 266 | 228 | 1.2 | 0.5 | 10.3 | 5.4 | 
12 | CCCCCCCN1CC[C@]2(C)c3cc(O)ccc3CC1[C@H]2C |  |  | inactive | 0.243 µM | 2.57 µM |  |  |  |  | 1.1 | 2.8 | 11 | 1350 | 0.008 | 3.5 | 12.9 | 11.5 | 
13 | CCCCCCCCCCN1CC[C@]2(C)c3cc(O)ccc3CC1[C@H]2C | inactive | inactive | inactive | 4.62 µM | 4.19 µM |  |  |  |  | 0.2 | 3 | 0.9 | 61 | 0.02 |  |  |  | Activity (Mus musculus [3]): inactive
14 | C[C@H]1C2Cc3ccc(O)cc3[C@@]1(C)CCN2C |  |  | inactive | 0.011 µM | 1.19 µM | 452 | 328 | 0.03 | 222 | 0.4 | 4 | 108 | 0.07 | 1640 | 0.3 | 0.8 | 0.6 | 
15 | CCCCCCCN1CC[C@]2(C)c3cc(O)ccc3CC1[C@@H]2C |  |  | inactive | 0.0088 µM | 5.63 µM | 28 | 9.6 | 0.5 | 23 | 3.1 | 1.2 | 640 | 115 | 5.6 | 0.13 | 1.7 | 2.4 | 
16 | CCCCCN1CC[C@@]2(C)c3cc(O)ccc3CC1[C@H]2C |  |  | inactive | 1.74 µM | 1.7 µM |  |  |  |  |  |  |  |  |  | 1 | 20.4 | 38 | 
17 | CCCCCCCCCN1CC[C@]2(C)c3cc(O)ccc3CC1[C@H]2C | inactive | inactive | inactive | 1.38 µM | 4.15 µM |  |  |  |  | 0.1 | 18 | 3 | 346 | 0.009 |  |  |  | Activity (Mus musculus [3]): inactive
18 | CCCN1CC[C@]2(C)c3cc(O)ccc3CC1[C@@H]2C | inactive | inactive |  | 0.0076 µM | 0.264 µM | 687 | 629 | 2.3 | 226 | 0.2 | 1.3 | 35 | 0.4 | 97 | 22 |  |  | Activity (Mus musculus [19]): 0.4
19 | CCCCCCCCN1CC[C@]2(C)c3cc(O)ccc3CC1[C@H]2C |  |  | inactive | 0.522 µM | 0.786 µM |  |  |  |  | 0.3 | 14.2 | 1.5 | 281 | 0.005 | 7.8 |  | 11.1 | inhibition in vivo at 30 mg/kg (Mus musculus [18]): 14%
20 | CCCN1CC[C@@]2(C)c3cc(O)ccc3CC1[C@H]2C | inactive | inactive |  | 5.22 µM | 0.606 µM |  |  |  |  | 0.2 | 0.5 | 0.1 | 14.1 | 0.008 |  |  |  | Activity (Mus musculus [3]): inactive; inhibition in vivo at 30 mg/kg (Mus musculus [23]): 20%
21 | C[C@@H]1C2Cc3ccc(O)cc3[C@]1(C)CCN2C | inactive | inactive |  | 4.97 µM | 0.041 µM |  |  |  |  | 0.3 | 2.7 | 0.008 | 0.03 | 0.3 |  |  |  | Inhibition (Mus musculus [24]): 43%
22 | CCCCCN1CC[C@]2(C)c3cc(O)ccc3CC1[C@@H]2C |  |  | inactive | 0.016 µM | 2.47 µM |  |  |  |  |  |  |  |  |  | 0.2 | 1.3 | 2.4 | 
23 | CCN1CC[C@@]2(C)c3cc(O)ccc3CC1[C@H]2C | inactive | inactive | inactive | 10 µM | 0.13 µM |  |  |  |  |  |  |  |  |  | 33.5 |  |  | 
